Values belong to the compound of their own block, whether it stands above or below them.
Molecular target: human activated kallikrein enzyme (Homo sapiens, UniProt P03952)
Experiment: Plasma kallikrein inhibition, fluorogenic PFR-AMC substrate, 500 pM activated kallikrein format
Assay type: biochemical
Conditions: 500 pM activated kallikrein, 300 uM PFR-AMC, 30 min preincubation, 10 min reaction; read-out: Primary Dose Response Assay: Average EC50
How it was run: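 Fluorescence (ex 380/em 460 nm) is read after 10 min of 300 uM PFR-AMC turnover by 500 pM enzyme at RT. Compounds sit with enzyme for 30 min beforehand. Buffer is Tris (pH 7.5) with EDTA, NaCl, PEG-400 and Triton X-100; EC50 values are banded.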

Sequence of human activated kallikrein enzyme (P03952 391-638 limits assumed): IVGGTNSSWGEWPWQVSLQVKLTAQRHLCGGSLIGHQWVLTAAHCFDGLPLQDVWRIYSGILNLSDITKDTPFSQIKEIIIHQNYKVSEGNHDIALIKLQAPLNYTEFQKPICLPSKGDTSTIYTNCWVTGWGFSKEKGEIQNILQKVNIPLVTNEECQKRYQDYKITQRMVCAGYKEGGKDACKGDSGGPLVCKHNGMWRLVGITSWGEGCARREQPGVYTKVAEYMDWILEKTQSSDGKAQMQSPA
Sequence of human activated kallikrein enzyme (P03952 20-390 partner limits assumed): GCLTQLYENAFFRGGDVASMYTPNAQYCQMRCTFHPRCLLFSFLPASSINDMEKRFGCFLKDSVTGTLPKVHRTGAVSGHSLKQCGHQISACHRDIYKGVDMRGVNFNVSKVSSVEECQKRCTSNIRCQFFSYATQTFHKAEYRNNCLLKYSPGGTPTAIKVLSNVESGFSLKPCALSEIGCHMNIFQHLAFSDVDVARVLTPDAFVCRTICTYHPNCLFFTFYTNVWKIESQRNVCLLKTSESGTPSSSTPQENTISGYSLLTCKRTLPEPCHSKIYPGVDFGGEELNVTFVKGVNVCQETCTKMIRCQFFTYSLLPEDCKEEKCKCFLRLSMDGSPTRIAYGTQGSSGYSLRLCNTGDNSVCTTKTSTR

SMILES: N[C@H]1C[C@H](c2cn3cc(C4CC4)ccc3n2)N(c2cc(NC(=O)[C@H]3C[C@@H]3c3cccc(Cl)c3)ncn2)C1 [Example 297, (1S,2S)—N-(6-((2R,4S)-4-amino-2-(6-cyclopropylimidazo[1,2-a]pyridin-2-yl)pyrrolidin-1-yl)pyrimidin-4-yl)-2-(3-chlorophenyl)cyclopropane-1-carboxamide]
- EC50: 1000 to 6000 nM

SMILES: O=C(O)c1cc(C2CC2)cn2cc(CNc3cc(NC(=O)[C@H]4C[C@@H]4c4cccc(Cl)c4)ncn3)nc12 [Example 298, 2-(((6-((1S,2S)-2-(3-chlorophenyl)cyclopropane-1-carboxamido)pyrimidin-4-yl)amino)methyl)-6-cyclopropylimidazo[1,2-a]pyridine-8-carboxylic acid]
- EC50: 1 to 10 nM

SMILES: NC(=O)c1cc(C2CC2)cn2cc(CNc3cc(NC(=O)[C@H]4C[C@@H]4c4cccc(Cl)c4)ncn3)nc12 [Example 302, 2-(((6-((1S,2S)-2-(3-chlorophenyl)cyclopropane-1-carboxamido)pyrimidin-4-yl)amino)methyl)-6-cyclopropylimidazo[1,2-a]pyridine-8-carboxamide]
- EC50: 1 to 10 nM

SMILES: CNC(=O)c1cc(C2CC2)cn2cc(CNc3cc(NC(=O)[C@H]4C[C@@H]4c4cccc(Cl)c4)ncn3)nc12 [Example 303, 2-(((6-((1S,2S)-2-(3-chlorophenyl)cyclopropane-1-carboxamido)pyrimidin-4-yl)amino)methyl)-6-cyclopropyl-N-methylimidazo[1,2-a]pyridine-8-carboxamide]
- EC50: 1 to 10 nM

SMILES: O=C(Nc1cc(NCc2cn3cc(C4CC4)cc(OC4CNC4)c3n2)ncn1)[C@H]1C[C@@H]1c1cccc(Cl)c1 [Example 306, (1S,2S)—N-(6-(((8-(azetidin-3-yloxy)-6-cyclopropylimidazo[1,2-a]pyridin-2-yl)methyl)amino)pyrimidin-4-yl)-2-(3-chlorophenyl)cyclopropane-1-carboxamide]
- EC50: < 1 nM

SMILES: Nc1cc(C2CC2)cn2cc(CNc3cc(NC(=O)[C@H]4C[C@@H]4c4cccc(Cl)c4)ncn3)nc12 [Example 308, (1S,2S)—N-(6-(((8-amino-6-cyclopropylimidazo[1,2-a]pyridin-2-yl)methyl)amino)pyrimidin-4-yl)-2-(3-chlorophenyl)cyclopropane-1-carboxamide]
- EC50: 1 to 10 nM

SMILES: CS(=O)(=O)c1cc(C2CC2)cn2cc(CNc3cc(NC(=O)[C@H]4C[C@@H]4c4cc(Cl)ccn4)ncn3)nc12 [Example 325, (1S,2S)-2-(4-chloropyridin-2-yl)-N-(6-(((6-cyclopropyl-8-(methylsulfonyl)imidazo[1,2-a]pyridin-2-yl)methyl)amino)pyrimidin-4-yl)cyclopropane-1-carboxamide]
- EC50: < 1 nM

SMILES: O=C(Nc1cc(N(CCO)Cc2cn3cc(C4CC4)ccc3n2)ncn1)[C@H]1C[C@@H]1c1cc(Cl)ccn1 [Example 328, (1S,2S)-2-(4-chloropyridin-2-yl)-N-(6-(((6-cyclopropylimidazo[1,2-a]pyridin-2-yl)methyl)(2-hydroxyethyl)amino)pyrimidin-4-yl)cyclopropane-1-carboxamide]
- EC50: 10 to 100 nM

SMILES: N#Cc1ccc(Cl)cc1C1CC1C(=O)Nc1cc(NCc2cn3cc(C4CC4)cc(N4CCCC4=O)c3n2)ncn1 (stereo not shown) [Example 335]
- EC50: 100 to 1000 nM

SMILES: COc1cc(NCc2cn3cc(C4CC4)ccc3n2)cc(NC(=O)[C@H]2C[C@@H]2c2cc(Cl)ccn2)n1 [Example 339, (1S,2S)-2-(4-chloropyridin-2-yl)-N-(4-(((6-cyclopropylimidazo[1,2-a]pyridin-2-yl)methyl)amino)-6-methoxypyridin-2-yl)cyclopropane-1-carboxamide]
- EC50: 1 to 10 nM

Continued, values first:

- EC50: 1 to 10 nM
SMILES: COc1cc(NCc2cn3cc(C4CC4)ccc3n2)cc(NC(=O)[C@H]2C[C@@H]2c2cccc(Cl)c2)n1 [Example 340, (1S,2S)-2-(3-chlorophenyl)-N-(4-(((6-cyclopropylimidazo[1,2-a]pyridin-2-yl)methyl)amino)-6-methoxypyridin-2-yl)cyclopropane-1-carboxamide]

- EC50: > 6000 nM
SMILES: N#CC1(c2cccc(Cl)c2)CC1C(=O)Nc1cc(NCc2cn3cc(C4CC4)ccc3n2)ncn1 (stereo not shown) [Example 349, 2-(3-chlorophenyl)-2-cyano-N-(6-(((6-cyclopropylimidazo[1,2-a]pyridin-2-yl)methyl)amino)pyrimidin-4-yl)cyclopropane-1-carboxamide]

- EC50: > 6000 nM
SMILES: CN(C(=O)[C@H]1C[C@@H]1c1cccc(Cl)c1)c1cc(NCc2cn3cc(C4CC4)ccc3n2)ncn1 [Example 350, (1S,2S)-2-(3-chlorophenyl)-N-(6-(((6-cyclopropylimidazo[1,2-a]pyridin-2-yl)methyl)amino)pyrimidin-4-yl)-N-methylcyclopropane-1-carboxamide]

- EC50: 100 to 1000 nM
SMILES: Cc1ccnc([C@H]2C[C@@H]2C(=O)Nc2cc(NC(C)c3cn4c(N5CC(=O)N(C)C5=O)cc(C5CC5)cc4n3)nc(C)n2)n1 (stereo partly drawn) [Example 362, (1S,2S)-N-(6-((1-(7-cyclopropyl-5-(3-methyl-2,4-dioxoimidazolidin-1-yl)imidazo[1,2-a]pyridin-2-yl)ethyl)amino)-2-methylpyrimidin-4-yl)-2-(4-methylpyrimidin-2-yl)cyclopropane-1-carboxamide]

- EC50: 10 to 100 nM
SMILES: Cc1ccnc([C@H]2C[C@@H]2C(=O)Nc2cc(NC(c3cn4cc(C5CC5)cc(N5CC(=O)N(C)C5=O)c4n3)C(F)(F)F)ncn2)n1 (stereo partly drawn) [Example 370, (1S,2S)-N-(6-((1-(6-cyclopropyl-8-(3-methyl-2,4-dioxoimidazolidin-1-yl)imidazo[1,2-a]pyridin-2-yl)-2,2,2-trifluoroethyl)amino)pyrimidin-4-yl)-2-(4-methylpyrimidin-2-yl)cyclopropane-1-carboxamide]

- EC50: < 1 nM
SMILES: Cc1ccnc([C@H]2C[C@@H]2C(=O)Nc2cc(NCc3cn4cc(Cl)cc(N5CC(=O)N(C)C5=O)c4n3)ncn2)n1 [Example 380, (1S,2S)-N-(6-(((6-chloro-8-(3-methyl-2,4-dioxoimidazolidin-1-yl)imidazo[1,2-a]pyridin-2-yl)methyl)amino)pyrimidin-4-yl)-2-(4-methylpyrimidin-2-yl)cyclopropane-1-carboxamide]

- EC50: 10 to 100 nM
SMILES: COc1ccc(CN2C(=O)CN(c3cc(C4CC4)cn4cc(CNc5cc(NC(=O)[C@H]6C[C@@H]6c6cccc(Cl)c6)ncn5)nc34)C2=O)cc1 [Example 397, (1S,2S)-2-(3-chlorophenyl)-N-(6-(((6-cyclopropyl-8-(3-(4-methoxybenzyl)-2,4-dioxoimidazolidin-1-yl)imidazo[1,2-a]pyridin-2-yl)methyl)amino)pyrimidin-4-yl)cyclopropane-1-carboxamide]

- EC50: 1 to 10 nM
SMILES: O=C(Nc1cc(NCc2cn3cc(C4CC4)cc(N4CC(=O)N(CC(F)(F)F)C4=O)c3n2)ncn1)[C@H]1C[C@@H]1c1cccc(Cl)c1 [Example 398, (1S,2S)-2-(3-chlorophenyl)-N-(6-(((6-cyclopropyl-8-(2,4-dioxo-3-(2,2,2-trifluoroethyl)imidazolidin-1-yl)imidazo[1,2-a]pyridin-2-yl)methyl)amino)pyrimidin-4-yl)cyclopropane-1-carboxamide]

- EC50: 10 to 100 nM
SMILES: Cc1ccnc([C@H]2C[C@@H]2C(=O)Nc2cc(NC(C)c3cn4cc(C5CC5)cc(N5CC(=O)N(CCOCc6ccccc6)C5=O)c4n3)nc(C3CC3)n2)n1 (stereo partly drawn) [Example 409, (1S,2S)-N-(6-((1-(8-(3-(2-(benzyloxy)ethyl)-2,4-dioxoimidazolidin-1-yl)-6-cyclopropylimidazo[1,2-a]pyridin-2-yl)ethyl)amino)-2-cyclopropylpyrimidin-4-yl)-2-(4-methylpyrimidin-2-yl)cyclopropane-1-carboxamide]
